Series [1] in a line: Particle size (diameter) and polydispersity index of lipid nanoparticles. Format: physicochemical. The settings on record: nanoparticles comprising the lipid. Summed up: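 Size and PDI measured by dynamic light scattering (Zetasizer Nano ZS) in 1×PBS. LNPs comprised DSPC, cholesterol, PEG lipid and ionizable lipid, some with rhodamine-DOPE.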
A short description of series [2]: Encapsulation efficiency (% EE) of lipid nanoparticles. Format: physicochemical. Conditions: nanoparticles comprising the lipid. In short, it runs like this:
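RNA-loaded LNPs were diluted to ~5 μg/mL in TE buffer (pH 7.5) and incubated 15 min at 37 °C with buffer or 2% Triton X-100 solution, then RiboGreen fluorescence was read (ex ~480/em ~520 nm). After blank subtraction, free RNA % = intact-sample fluorescence ÷ Triton-disrupted fluorescence.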

Series [3] in a line: Lipid nanoparticle surface hydrophobicity by Generalized Polarization by Laurdan (N-GP). The series is classed as physicochemical. The settings on record: for LNP surface hydrophobicity (N-GP*): Table 2b, nanoparticles comprising the lipid; for Lipid nanoparticle surface hydrophobicity (N-GP*): Table 2a, Laurdan, higher N-GP indicates a less polar surface. Summed up:
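Laurdan, a fluorescent aminonaphthalene ketone lipid, is post-inserted into the nanoparticle surface. Its fluorescence spectrum is collected and converted to a normalized Generalized Polarization (N-GP) value as the measure of surface hydrophobicity.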

Series [4] in a line: Apparent pKa of lipid nanoparticles. Conditions: for Apparent pKa 95% CI: Table 2b, 95% confidence interval; for Apparent pKa: Table 2a, nanoparticles comprising the lipid. Format: physicochemical.
Another series has as its system CD-1 mice. In words: Expression of hEPO induced by LNPs (mRNA encoding hEPO) administered to mice. The series is classed as in vivo. The settings on record: Table 4a, serum, 6 h after intravenous injection; for Avg. hEPO Concentration (mIU/mL)* ± Avg. SD: ELLA Simple Plex Assay. Summed up:
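LNPs of DSPC, cholesterol, PEG lipid and test ionizable lipid carrying hEPO mRNA were given intravenously. Serum hEPO was measured 6 h post-injection by ELLA Simple Plex immunoassay calibrated to the 2nd IRP WHO standard.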

The mark [5] stands for this setting: Table 2a, DSPC, cholesterol, PEG lipid.

As to `CCCCCC(CCCCC)CCOC(=O)CCCCCCCN(CCCCCCCC(=O)OCCC(CCCC)CCCC)CCCNc1ncccc1N` [Compound 14], the “Diameter (nm)” value in series [1] (Table 2b) was 184.7 nm; in series [1] (Table 3) it was 111.7 nm. The PDI in series [1] (Table 2b) stood at 0.366; in series [1] (Table 3), 0.282. Further, the “% EE” value in series [2] (Table 2b) is 94.4%; in series [2] (Table 3) it was 98.6%. In series [3], the “LNP surface hydrophobicity (N-GP*)” value worked out at 1.00. The “Apparent pKa 95% CI” value in series [4] is on record as 6.808 to 6.931. Also, the “Avg. hEPO Concentration (mIU/mL)* ± Avg. SD” value in the series on CD-1 mice turned out to be 5.96E+05 ± 9.17E+03 mIU/mL.

Consider `CCCCCC(CCCCC)CCOC(=O)CCCCCCCN(CCCCCCCC(=O)OCCC(CCCCC)CCCCC)CCCNC(=O)C1(C)CC1` [Compound 25], for which the “Diameter (nm)” value worked out at 163.9 nm in series [1] (Table 2b) and 89.3 nm in series [1] (Table 3). In addition, the PDI in series [1] (Table 2b) was found to be 0.22; in series [1] (Table 3) it was 0.154. In addition, the “% EE” value is recorded as 26.4% in series [2] (Table 2b) and 36.1% in series [2] (Table 3). Also, the “LNP surface hydrophobicity (N-GP*)” value in series [3] amounted to 0.98. Moreover, in series [4], the “Apparent pKa 95% CI” value was 6.865 to 6.928. Further, the “Avg. hEPO Concentration (mIU/mL)* ± Avg. SD” value in the series with CD-1 mice came to 5.13E+06 ± 9.33E+04 mIU/mL.

Regarding `CCCCCC(CCCCC)CCOC(=O)CCCCCCCN(CCCCCCCC(=O)OCCC(CCCC)CCCC)CCCNS(=O)(=O)CCOC` [Compound 10], the PDI came to 0.208 in series [1] (Table 2a), 0.181 in series [1] (Table 2b) and 0.154 in series [1] (Table 3). In addition, the “Diameter (nm)” value in series [1] (setting [5]) came out at 133.3 nm; in series [1] (Table 2b), 122.3 nm; in series [1] (Table 3), 96.7 nm. In addition, the entries for the “% EE” value in series [2] (Table 2a), in series [2] (Table 2b) and in series [2] (Table 3) were 55.1%, 65.0% and 91.7%, respectively. Moreover, the “Lipid nanoparticle surface hydrophobicity (N-GP*)” value in series [3] is given as 1.03. For the same molecule, the “LNP surface hydrophobicity (N-GP*)” value in series [3] was found to be 0.89. Also, the “Apparent pKa” value in series [4] came out at 6.738. In series [4], the “Apparent pKa 95% CI” value was in the range of 6.644 to 6.741. Besides, the “Avg. hEPO Concentration (mIU/mL) ± Avg. SD” value in the series on CD-1 mice was 6.15E+06 ± 1.35E+05 mIU/mL.

Turning to `CCCCCC(CCCCC)CCOC(=O)CCCCCCCN(CCCCCCCC(=O)OCCC(CCCC)CCCC)CCCNc1n[s+]([O-])nc1NC` (stereo not shown) [Compound 8], the results for the PDI in series [1] (Table 2a) and in series [1] (Table 3) were 0.144 and 0.217, respectively. Also, the “Diameter (nm)” value in series [1] (setting [5]) was found to be 86.9 nm; in series [1] (Table 3), 90.9 nm. In addition, the “% EE” value in series [2] (Table 2a) came to 89.6%; in series [2] (Table 3), 97.1%. For the same molecule, in series [3], the “Lipid nanoparticle surface hydrophobicity (N-GP*)” value is 0.99. Moreover, the “Apparent pKa” value in series [4] worked out at 6.934. Moreover, the “Avg. hEPO Concentration (mIU/mL) ± Avg. SD” value with CD-1 mice is listed as 4.95E+06 ± 1.24E+05 mIU/mL.

Turning to `CCCCCC(CCCCC)CCOC(=O)CCCCCCCN(CCCCCCCC(=O)OCCC(CCCC)CCCC)CCCNc1noc(N)n1` [Compound 9], the results for the “Diameter (nm)” value in series [1] (Table 2b) and in series [1] (Table 3) were 96.9 nm and 69.7 nm, respectively. The PDI in series [1] (Table 2b) was found to be 0.103; in series [1] (Table 3) it was 0.165. In addition, the figures for the “% EE” value in series [2] (Table 2b) and in series [2] (Table 3) were 91.9% and 91.2%, respectively. In series [3], the “LNP surface hydrophobicity (N-GP*)” value is 0.98. Moreover, the “Apparent pKa 95% CI” value in series [4] lay within 6.583 to 6.671. The “Avg. hEPO Concentration (mIU/mL)* ± Avg. SD” value in the series with CD-1 mice is listed as 1.84E+06 ± 2.44E+04 mIU/mL.

Consider `CCCCCC(CCCCC)CCOC(=O)CCCCCCCN(CCCCCCCC(=O)OCCC(CCCCC)CCCCC)CCCNc1noc(N)n1` [Compound 23], for which the “Diameter (nm)” value in series [1] (Table 2b) was 87.2 nm; in series [1] (Table 3), 62.7 nm. Further, the PDI in series [1] (Table 2b) amounted to 0.181; in series [1] (Table 3), 0.144. Further, the “% EE” value in series [2] (Table 2b) was 98.1%; in series [2] (Table 3), 96.4%. Further, in series [3], the “LNP surface hydrophobicity (N-GP*)” value is given as 0.95. Further, in series [4], the “Apparent pKa 95% CI” value is listed as 6.511 to 6.611. The “Avg. hEPO Concentration (mIU/mL)* ± Avg. SD” value in the series with CD-1 mice came to 1.17E+06 ± 1.91E+04 mIU/mL.

On to `CCCCCCCC(CCCCCCC)OC(=O)CCCCCCCN(CCCCCCCC(=O)OCCC(CCCC)CCCC)CCCNS(=O)(=O)CC` [Compound 19], for which the PDI amounted to 0.127 in series [1] (Table 2a), 0.187 in series [1] (Table 2b) and 0.129 in series [1] (Table 3). The “Diameter (nm)” value is 82.8 nm in series [1] (setting [5]), 86.4 nm in series [1] (Table 2b) and 84.5 nm in series [1] (Table 3). In addition, the “% EE” value worked out at 77.2% in series [2] (Table 2a), 77.0% in series [2] (Table 2b) and 94.5% in series [2] (Table 3). The “Lipid nanoparticle surface hydrophobicity (N-GP*)” value in series [3] came to 1.00. Further, the “LNP surface hydrophobicity (N-GP*)” value in series [3] is recorded as 1.00. The “Apparent pKa” value in series [4] is recorded as 6.551. For the same molecule, the “Apparent pKa 95% CI” value in series [4] was in the range of 6.572 to 6.671. The “Avg. hEPO Concentration (mIU/mL) ± Avg. SD” value in the series on CD-1 mice was 1.36E+07 ± 2.52E+05 mIU/mL.

`CCCCCCCCC(CCCCCCCC)OC(=O)CCCCCCCN(CCCCCCCC(=O)OCCC(CCCC)CCCC)CCCNS(=O)(=O)Cc1ccon1` [Compound 6]: the results for the PDI in series [1] (Table 2a) and in series [1] (Table 3) were 0.042 and 0.163, respectively. Moreover, the entries for the “Diameter (nm)” value in series [1] (setting [5]) and in series [1] (Table 3) were 60.2 nm and 65.9 nm, respectively. Moreover, the “% EE” value came out at 93.2% in series [2] (Table 2a) and 96.7% in series [2] (Table 3). In addition, the “Lipid nanoparticle surface hydrophobicity (N-GP*)” value in series [3] amounted to 0.99. Moreover, the “Apparent pKa” value in series [4] is 6.323. The “Avg. hEPO Concentration (mIU/mL) ± Avg. SD” value in the series on CD-1 mice stood at 5.41E+06 ± 6.06E+04 mIU/mL.

For `CCCCCCCC(CCCCCCC)OC(=O)CCCCCCCN(CCCCCCCC(=O)OCCC(CCCC)CCCC)CCCNS(=O)(=O)CCOC` [Compound 17], the PDI in series [1] (Table 2a) is 0.128; in series [1] (Table 3) it was 0.129. In addition, the “Diameter (nm)” value in series [1] (setting [5]) is 89.7 nm; in series [1] (Table 3), 90 nm. Moreover, the “% EE” value in series [2] (Table 2a) came to 77.1%; in series [2] (Table 3) it was 93.5%. Also, in series [3], the “Lipid nanoparticle surface hydrophobicity (N-GP*)” value came to 1.02. Also, in series [4], the “Apparent pKa” value was 6.689. In the series with CD-1 mice, the “Avg. hEPO Concentration (mIU/mL) ± Avg. SD” value was determined as 1.00E+07 ± 2.34E+05 mIU/mL.

These data come from patent US20240226026A1, “BRANCHED TAIL LIPID COMPOUNDS AND COMPOSITIONS FOR INTRACELLULAR DELIVERY OF THERAPEUTIC AGENTS” (ModernaTX, Inc., priority 2021, published 2024).
